Measurements taken from patent US9730906B2, “α-derivatives of cis-monounsaturated fatty acids for use as medicines” (UNIVERSITAT DE LES ILLES BALEARS, priority 2008, dated 2017).

Assays:
A549 cells = assay: Growth/viability of A549 lung cancer cells in culture (cell count); format: cell-based, human; design: key to Anti-tumour effect: + [inhibition of growth]; ++ [total halt of growth]; +++ [total removal of tumour cells]; settings: for IC50: concentration that reduces the number of cells to half
Summary of the method: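 A549 cells were grown in RPMI with 10% serum at 37 °C under 5% CO2 and exposed to fatty-acid derivatives at 0–400 μM, or at 150 μM for 48 h. Cell number was counted by flow cytometry and expressed as percent of untreated control.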

[1] = Body weight of rats on cafeteria diet, no pre-treatment (Table 5); format: in vivo, rat; settings: cafeteria diet for 2 weeks, 300 mg/kg daily oral, no pre-treatment
Description: The weight of treated animals was statistically less than the weight of obese control rats and statistically indistinguishable from that of lean control rats.

[2] = Levels of cholesterol, triglycerides and glucose in rats after oral treatment; format: in vivo, rat; settings: for % control CHO (cholesterol) / % control TG (triglycerides): rats, daily dose of 600 mg/kg oral, untreated controls = 100%
Method: FIG. 13. The four bars, from left to right respectively, show the effect of treatments with vehicle (control, first bar), OHOD at 200 mg/kg (second bar), OHOD at 400 mg/kg (third bar) and OHOD at 600 mg/kg (fourth bar) on the cholesterol levels (group of four bars to the left), triglycerides (group of four bars in the middle) and glucose (group of four bars to the right). The treatments were oral in all cases and were maintained for 30 days. The values indicated are the average obtained in 6 animals per group.
FIG. 14. Effect of treatment with vehicle (control) or with the fatty acids of the invention (600 mg/kg) on the levels of cholesterol, triglycerides and glucose. The values indicated are the average of the values obtained in 6 animals. Each group of three bars represents treatment with a different fatty acid with the left bar corresponding to cholesterol, the middle bar to triglycerides and the right bar to glucose.
Metabolic diseases form a set of pathologies characterised by the accumulation or deficit of certain molecules (cholesterol, triglycerides, glucose, etc.) in the serum or tissues. These changes are the reflection of dysfunctions that are normally associated with errors in the activity of certain enzymes or in the control of these proteins. Among the most important metabolopathies are hypercholesterolemia (elevated levels of cholesterol), hypertriglyceridemia (elevated levels of triglycerides) and diabetes (elevated levels of glucose). These pathologies have high rates of incidence, morbidity and mortality, so that treatment is a first order necessity. […] For these experiments, the dose of fatty acid indicated (0, 200, 400 and 600 mg/kg) was supplied daily via the oral route. At the end of the treatment (30 days), blood was sampled from control and treated animals (n=6) and the levels of cholesterol, triglycerides and glucose were determined using standard colorimetric methods.
In a further experiment, the effect of various molecules at a single dose (600 mg/kg) was investigated. […] In this sense, modification on the α-carbon and the double bond in cis configuration are crucial elements for producing the therapeutic effect indicated above. […] Finally, the effect of α-derivatives of cis-monounsaturated fatty acids on the prevention of obesity was investigated. For this, a model of rat obesity induced by a cafeteria diet, where the hypercaloric food increases the weight of the animals very markedly, was used. There were various experimental groups (see Table 3), each of which consisted of 6 female Wistar Kyoto rats of 250-300 g in weight. All the animals received a standard diet for 2 weeks. In addition, 2 of the groups received an oral preventative pre-treatment of vehicle and the other groups received 300 mg/kg of the fatty acids indicated below. Afterwards, one of the control groups was maintained on a standard diet (lean control) and the other was fed on a cafeteria diet (obese control). The treated animal groups were fed on the cafeteria diet. Preventative pre-treatment was maintained for all the groups. After two weeks on these diets, the lean control group had increased their body weight by an average of 16±16 g, while the obese control group had increased their body weight by an average of 43±17 g (statistically significance difference, p<0.01).

SF767 human tumour cells = assay: Growth of SF767 tumour cells in culture; format: cell-based; design: key to Anti-tumour effect: + [inhibition of growth]; ++ [total halt of growth]; +++ [total removal of tumour cells]; key to Mechanism of action: P [anti-proliferative]; D [differentiation]; A [apoptosis]; settings: for IC50: concentration that reduces the number of cells to half
Method: In a second experimental series, designed to discover whether these molecules are effective in treatment of different types of tumours, the effect of OHOD at various concentrations on human cells of different types of cancer was studied. These experiments were performed as described before, except that the M220 and HT-29 cell lines were cultured in DMEM medium and the MDA-MB-231 line was incubated in Leibowitz L-15 medium supplemented with 15% foetal bovine […]. […] Where the nature of the tumour process requires, application can be topical (use on the skin of active products for the treatment of melanoma and other cutaneous abnormalities of cancerous nature), which can be considered as cosmetic treatments when attempts are made to correct aesthetic defects.

hypertensive rats = assay: Arterial pressure in hypertensive rats after 8-day treatment (Table 5); format: in vivo, rat; settings: arterial pressure, hypertensive rats, 8-day treatment, 400 mg/kg oral
[3] = OHOD 200, 400, 600 mg/kg oral daily, 30 days, Sprague-Dawley rats, p<0.05

| SMILES | IC50 (A549 cells) | Body weight (g) (control = 311 g) [1] | % control CHO (cholesterol) [2] | % control TG (triglycerides) [2] | IC50 (SF767 human tumour cells) | PA (control 214 mmHg) (hypertensive rats) | Anti-tumour effect (A549 cells; A549, Lung) | Mechanism of action (A549 cells; A549, Lung) | effect on tumour cells at 200 to 400 μM (A549 cells; Doses of 200 to 400 μM, A549) | cholesterol levels [2, 3] | glucose levels [2, 3] | triglycerides levels [2, 3] | Anti-tumour effect (SF767 human tumour cells; SF-767, Glioma) | Mechanism of action (SF767 human tumour cells; SF-767, Glioma) |
| --- | --- | --- | --- | --- | --- | --- | --- | --- | --- | --- | --- | --- | --- | --- |
| CCCCCCCC/C=C\CCCCCCC(O)C(=O)[O-].[Na+] (centres unmarked) [Na-OHOD] | 47 µM | 281 g | 51 % control | 32 % control | 52 µM | 128 mmHg | – | – | – | – | – | – | – | – |
| CCCCCCCC/C=C\CCCCCCC(OC)C(=O)O (stereo not drawn) [MOOD, α-Methoxy-cis-Δ9-octadecenoic] | 61 µM | 279 g | 65 % control | 64 % control | 73 µM | 142 mmHg | – | – | – | – | – | – | – | – |
| CCCCCCCC/C=C\CCCCCCC(O)C(=O)O (stereo not drawn) [OHOD, α-Hydroxy-cis-Δ9-octadecenoic] | 62 µM | 292 g | 55 % control | 38 % control | 71 µM | 146 mmHg | +++ | P D | total elimination of tumour cells | significant reductions | significant reductions | significant reductions | ++ | D |
